# Data from patent US7632851B2, “Benzo[1,2,5]oxadiazoles and benzol[1,2,5]thiadiazoles useful as histopathological staining agents, imaging agents and biomarkers” (Novartis AG, priority 2003, dated 2009).
# Assay: Fluorescence of the compound (precondition of the staining test)
# Assay type: physicochemical
# Experimental: Four-micrometer thick paraffin sections from an APP23 mouse at 26 months of age are deparaffinized in xylene and rehydrated. 10 mg of the compound are dissolved in 1 mL DMSO and diluted with deionized water 1:10. This staining solution is applied on sections for about 20 min. Section background is cleared by washing with 95% ethanol. Finally sections are dehydrated in 99% ethanol, cleared in xylene and mounted with Vectashield™. Sections are investigated using fluorescence microscopy with the following filter combination: Excitation 450490 nm, emission 510 nm. Twenty micrometer thick cryotom sections from a AD brain cortex are air dried and fixated in 4% PFA for 5 min. After washing in tap water sections are stained either with Thioflavine S or with the compound for 5 min and further processed as described above. The compound is dissolved in DMSO and diluted to a final concentration of 0.01% with 50% Ethanol, Thioflavine S is dissolved in 50% Ethanol, final concentration is 0.01%.
row,Fluorescence,SMILES
1,not fluorescent,"CNc1ccc(-c2ccc3nonc3c2)cc1[N+](=O)[O-] [Example 21, (4Benzo[1,2,5]oxadiazol-5-yl-2-nitro-phenyl)-methyl-amine]"
2,not fluorescent,"O=C(NCCF)c1cnccc1-c1ccc2nonc2c1 [Example 12, 4Benzo[1,2,5]oxadiazol-5-yl-N-(2-fluoro-ethyl)-nicotinamide]"

# Further lines, the molecule ahead of its results:
row,SMILES,Fluorescence
1,"CNc1cccc(-c2ccc3nonc3c2)c1 [Example 4, (3Benzo[1,2,5]oxadiazol-5-yl-phenyl)-methyl-amine]",not fluorescent
2,"O=C(NCCF)c1cncc(-c2ccc3nonc3c2)c1 [Example 11, 5Benzo[1,2,5]oxadiazol-5-yl-N-(2-fluoro-ethyl)-nicotinamide]",not fluorescent
3,"FCCOc1ccc(-c2ccc3nonc3c2)cc1 [Example 5, 5-[4-(2-Fluoro-ethoxy)-phenyl]-benzo[1,2,5]oxadiazole]",not fluorescent
